# Experimental data published in patent US11154563B2, “Immunoproteasome inhibitors” (Principia Biopharma Inc., priority 2017, dated 2021).
# pIC50: −log10 of the molar value.
# Tests used:
# Assay type in all cases: biochemical
# [1] = molecular target: constitutive proteasome β5c unit (Homo sapiens, UniProt P20618+P28074); assay: Caliper-based proteasome enzymatic activity assay, β5c; conditions: human recombinant constitutive proteasome 0.3 nM, FAM-peptide substrate 1 μM, 3 h at rt; read-out: β5c subunit IC50
# Method in brief: (§1)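 Recombinant human immunoproteasome or constitutive proteasome (0.3 nM) with 1 μM FAM-peptide in 20 mM Hepes pH 7.4, 0.015% SDS, 0.01% BSA; LMP7/β5c ran 3 h at rt and were stopped with 5 uM carfilzomib, LMP2 ran 2 h and was stopped with 6.7 uM ixazomib. Cleaved product quantified by microfluidic separation; IC50 from percent inhibition.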
# [2] = molecular target: immunoproteasome LMP7/B5i subunit (Homo sapiens, UniProt P20618+P28062); assay: Caliper-based proteasome enzymatic activity assay, LMP7; conditions: human recombinant immunoproteasome 0.3 nM, FAM-peptide substrate 1 μM, 3 h at rt
# Method in brief: as §1
# [3] = molecular target: immunoproteasome LPM2/β1i subunit (Homo sapiens, UniProt P28065+P40306); assay: Caliper-based proteasome enzymatic activity assay, LMP2; conditions: human recombinant immunoproteasome 0.3 nM, FAM-peptide substrate 1 μM, 2 h at rt
# Experimental: A Caliper-based proteasome assay (Caliper Life Sciences, Hopkinton, Mass.) was used to measure inhibition of the immunoproteasome LMP7/B5i subunit, the immunoproteasome LPM2/β1i subunit, and the constitutive proteasome β5c unit for a compound of Formula (I). For LMP7 and β5c, serial dilutions of test compounds were incubated with either human recombinant immunoprotcasome or constitutive proteasome (0.3 nM enzyme) and a carboxyfluorescein (FAM)-labeled peptide substrate FAM-TYETFKSIMKKSPF-NH2 (1 μM) at it for 3 h. The reaction was then terminated with a buffer containing the known proteasome inhibitor carfilzomib at a concentration of 5 uM. For LMP2, serial dilutions of test compounds were incubated with human recombinant immunoproteasome proteasome (0.3 nM enzyme) and a carboxyfluorescein (FAM)-labeled peptide substrate FAM-[…]-NH2 (1 μM) at rt for 2 h. The reaction was then terminated with a buffer containing the known proteasome inhibitor ixazomib at a concentration of 6.7 uM. The reaction buffer was 20 mM Hepes pH 7.4, 0.01% bovine serum albumin, 0.015% SDS, 0.5 mM EDTA, 1%0/DMSO. The peptide cleavage reaction product was quantified on a Caliper LabChip 3000. Percent inhibition was calculated for each compound dilution and the concentration that produced 50% inhibition was calculated. This value is presented as the IC50.
Structure (SMILES),pIC50 [1],pIC50 [2],pIC50 [3]
"CC1(C=C(C#N)C(=O)N2CCCC[C@@H]2COC(=O)N[C@@H](Cc2coc3ccccc23)B(O)O)CCOCC1 [Example 59, ((R)-2-(benzofuran-3-yl)-1-(((((R)-1-(2-cyano-3-(4-methyltetrahydro-2H-pyran-4-yl)acryloyl)piperidin-2-yl)methoxy)carbonyl)amino)ethyl)boronic acid]",6.43,8.55,< 5.30
"CC(C)(C=C(C#N)C(=O)N1CCC[C@@H]1COC(=O)N[C@@H](Cc1ccccc1)B(O)O)N1CCCC1 [Example 34, ((R)-1-(((((R)-1-(2-cyano-4-methyl-4-(pyrrolidin-1-yl)pent-2-enoyl)pyrrolidin-2-yl)methoxy)carbonyl)amino)-2-phenylethyl)boronic acid]",5.47,7.85,< 5.30
"CC(C)(C=C(C#N)C(=O)N1C[C@@H]2C[C@@H]2[C@@H]1COC(=O)N[C@@H](Cc1ccccc1)B(O)O)N1CCC(F)(F)C1 [Example 74, ((R)-1-(((((1S,2R,5R)-3-(2-cyano-4-(3,3-difluoropyrrolidin-1-yl)-4-methylpent-2-enoyl)-3-azabicyclo[3.1.0]hexan-2-yl)methoxy)carbonyl)amino)-2-phenylethyl)boronic acid]",6.03,8.92,5.47
"CC(C)(C=C(C#N)C(=O)N1CCC[C@@H]1COC(=O)N[C@@H](Cc1ccccc1)B(O)O)N1CCC(F)(F)C1 [Example 35, ((R)-1-(((((R)-1-(2-cyano-4-(3,3-difluoropyrrolidin-1-yl)-4-methylpent-2-enoyl)pyrrolidin-2-yl)methoxy)carbonyl)amino)-2-phenylethyl)boronic acid]",5.52,8.70,< 5.30
CC(C)(C)C=C(C#N)C(=O)N1C[C@@H]2C[C@@H]2[C@H]1COC(=O)N[C@@H](Cc1ccccc1)B(O)O [Example 38],< 5.30,8.15,< 5.30
"Cc1ccc(C[C@H](NC(=O)OC[C@H]2CCCN2C(=O)C(C#N)=CC(C)(C)C)B(O)O)cc1 [Example 18, ((R)-1-(((((R)-1-(2-cyano-4,4-dimethylpent-2-enoyl)pyrrolidin-2-yl)methoxy)carbonyl)amino)-2-(p-tolyl)ethyl)boronic acid]",5.81,8.70,< 5.30
"CC(C)(C)C=C(C#N)C(=O)N1CCC[C@@H]1COC(=O)N[C@@H](Cc1coc2ccccc12)B(O)O [Example 39, ((R)-2-(benzofuran-3-yl)-1-(((((R)-1-(2-cyano-4,4-dimethylpent-2-enoyl)pyrrolidin-2-yl)methoxy)carbonyl)amino)ethyl)boronic acid]",6.73,8.92,< 5.30
"CC(C)(C=C(C#N)C(=O)N1CCCC[C@@H]1COC(=O)N[C@@H](Cc1ccc(F)cc1)B(O)O)N1CCC(F)(F)C1 [Example 82, ((R)-1-(((((R)-1-(2-cyano-4-(3,3-difluoropyrrolidin-1-yl)-4-methylpent-2-enoyl)piperidin-2-yl)methoxy)carbonyl)amino)-2-(4-fluorophenyl)ethyl)boronic acid]",5.67,8.85,< 5.30
"CC(C)C=C(C#N)C(=O)N1CCCC[C@H]1COC(=O)N[C@@H](Cc1ccccc1)B(O)O [Example 13, ((R)-1-(((((S)-1 (2-cyano-4-methylpent-2-enoyl)piperidin-2-yl)methoxy)carbonyl)amino)-2-phenylethyl)boronic acid]",< 5.30,7.42,5.39
"CC(C)C[C@H](NC(=O)OC[C@H]1CCCCN1C(=O)C(C#N)=CC(C)(C)N1CCC(F)(F)C1)B(O)O [Example 105, ((R)-1-(((((R)-1-(2-cyano-4-(3,3-difluoropyrrolidin-1-yl)-4-methylpent-2-enoyl)piperidin-2-yl)methoxy)carbonyl)amino)-3-methylbutyl)boronic acid]",5.84,8.57,5.67
"Cc1ccc(C[C@H](NC(=O)OC[C@@H]2CCCCCN2C(=O)C(C#N)=CC(C)(C)C)B(O)O)cc1 [Example 33, ((R)-1-(((((S)-1-(2-cyano-4,4-dimethylpent-2-enoyl)azepan-2-yl)methoxy)carbonyl)amino)-2-(p-tolyl)ethyl)boronic acid]",< 5.30,7.39,< 5.30
"C=CC(=O)N1CCC[C@@H]1COC(=O)N[C@@H](Cc1coc2ccccc12)B(O)O [Example 36, ((R)-1-(((((R)-1-acryloylpyrrolidin-2-yl)methoxy)carbonyl)amino)-2-(benzofuran-3-yl)ethyl)boronic acid]",6.40,8.16,< 5.30
"CC(C)(C)/C=C(\C#N)C(=O)N1CCCC[C@H]1COC(=O)N[C@@H](Cc1ccccc1)B(O)O [Example 9, ((R)-1-(((((S)-1-((E)-2-cyano-4,4-dimethylpent-2-enoyl)piperidin-2-yl)methoxy)carbonyl)amino)-2-phenylethyl)boronic acid]",< 5.30,7.85,5.44
"CC(C)C=C(C#N)C(=O)N1CCC[C@@H]1COC(=O)N[C@@H](Cc1coc2ccccc12)B(O)O [Example 16, ((R)-2-(benzofuran-3-yl)-1-(((((R)-1-(2-cyano-4-methylpent-2-enoyl)pyrrolidin-2-yl)methoxy)carbonyl)amino)ethyl)boronic acid]",6.35,8.60,< 5.30
"CC(C)C=C(C#N)C(=O)N1CCC[C@H]1COC(=O)N[C@@H](Cc1ccccc1)B(O)O [Example 12, ((R)-1-(((((S)-1-(2-cyano-4-methylpent-2-enoyl)pyrrolidin-2-yl)methoxy)carbonyl)amino)-2-phenylethyl)boronic acid]",< 5.30,7.41,< 5.30
"CC(C)(C)/C=C(\C#N)C(=O)N1C[C@H](F)C[C@@H]1COC(=O)N[C@@H](Cc1ccccc1)B(O)O [Example 90, ((R)-1-(((((2R,4R)-1-((E)-2-cyano-4,4-dimethylpent-2-enoyl)-4-fluoropyrrolidin-2-yl)methoxy)carbonyl)amino)-2-phenylethyl)boronic acid]",5.71,9.00,5.35
"CC(C)(C=C(C#N)C(=O)N1CCC[C@@H]1COC(=O)N[C@@H](Cc1ccccc1)B(O)O)N1CCC(F)(F)CC1 [Example 21, ((R)-1-(((((R)-1-(2-cyano-4-(4,4-difluoropiperidin-1-yl)-4-methylpent-2-enoyl)pyrrolidin-2-yl)methoxy)carbonyl)amino)-2-phenylethyl)boronic acid]",5.71,8.85,5.32
"CC(C)(C)C=C(C#N)C(=O)N1CCCC[C@@H]1COC(=O)N[C@@H](Cc1coc2ccccc12)B(O)O [Example 25, ((R)-2-(benzofuran-3-yl)-1-(((((R)-1-(2-cyano-4,4-dimethylpent-2-enoyl)piperidin-2-yl)methoxy)carbonyl)amino)ethyl)boronic acid]",6.76,9.22,< 5.30
"C=CC(=O)N1CCC[C@@H]1COC(=O)N[C@@H](Cc1ccccc1)B(O)O [Example 14, ((R)-1-(((((R)-1-acryloylpyrrolidin-2-yl)methoxy)carbonyl)amino)-2-phenylethyl)boronic acid]",5.31,6.91,< 5.30
